{"source": "paper PMC7392643", "about": "“Antibiotic fidaxomicin is an RdRp inhibitor as a potential new therapeutic agent against Zika virus” (BMC Medicine, 2020)", "key": {"ZIKV RdRp protein": {"molecular_target": "T1, ZIKV RdRp protein (Zika virus, UniProt A0A024B7W1)", "T1 construct": "RdRp (amino acids 272 to 903); His tag (8x histidine) (N); made in house; host or cells: Escherichia coli (Rosetta)", "T1 sequence (A0A024B7W1 2792-3423)": "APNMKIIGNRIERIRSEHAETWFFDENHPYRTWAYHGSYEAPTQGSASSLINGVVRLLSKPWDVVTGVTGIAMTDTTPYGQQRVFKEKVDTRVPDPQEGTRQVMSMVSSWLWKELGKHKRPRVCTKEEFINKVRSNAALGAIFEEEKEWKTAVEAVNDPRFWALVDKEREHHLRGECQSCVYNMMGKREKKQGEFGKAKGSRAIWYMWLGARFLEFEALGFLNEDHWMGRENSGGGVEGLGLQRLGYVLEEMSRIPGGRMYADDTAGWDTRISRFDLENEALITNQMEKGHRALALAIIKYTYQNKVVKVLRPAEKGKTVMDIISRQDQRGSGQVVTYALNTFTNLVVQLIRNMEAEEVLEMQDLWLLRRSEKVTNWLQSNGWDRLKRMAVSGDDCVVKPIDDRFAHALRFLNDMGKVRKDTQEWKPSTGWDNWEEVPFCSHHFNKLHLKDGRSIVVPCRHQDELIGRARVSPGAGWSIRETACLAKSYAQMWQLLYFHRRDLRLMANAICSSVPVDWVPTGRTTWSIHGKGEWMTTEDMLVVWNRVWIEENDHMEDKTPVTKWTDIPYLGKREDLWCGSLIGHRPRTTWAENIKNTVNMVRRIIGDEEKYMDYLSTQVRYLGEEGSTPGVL", "test": "SPR (BIAcore) binding to ZIKV RdRp protein", "procedure": "The cDNA fragment of ZIKV (ZG-01 strain) NS5 (amino acids 1 to 903), RdRp (amino acids 272 to 903), or DENV2 NS5 (amino acids 1 to 900) containing an N-terminal His tag sequence was cloned into a pET-30a-mutant vector. For protein expression, the plasmids were transformed into Rosetta™ competent cells (TIANGEN BIOTECH Co., Ltd., Beijing, China), respectively. […] Mass spectrometry was performed by Shanghai Applied Protein Technology Co. Ltd. (Shanghai, China). The concentration of a targeted protein was measured by SDS-PAGE using BSA (Sigma, St. Louis, MO) as a standard.\nSurface plasmon resonance (SPR) experiments were performed in a BIAcore T100 device (BIAcore Inc., Uppsala, Sweden) using CM5 sensor chips (General Electric Company, GE) according to the protocol provided by the manufacturer. Briefly, recombinant ZIKV NS5 protein, RdRp protein, or DENV2 NS5 protein was immobilized on a CM5 chip, respectively. Different concentrations of fidaxomicin or ribavirin were injected at a flow rate of 30 μL/min for 3 min. Subsequently, data were collected for a 3-min association followed by a 20-min dissociation. The chip was regenerated by injecting 10 μL of 15 mM NaOH for 20 s. All procedures were run in 1% DMSO PBS-P20 (GE) as a running buffer. The binding kinetics was analyzed with the software BIAevaluation version 3.1 using a 1:1 Langmuir binding model. The Kd was calculated as previously described."}, "[1]": {"text": "a. […] Data are expressed as mean ± SD. WBC: white blood cells; Lymph: lymphocytes; Mon: monocytes; Gran: granulocytes; RBC: red blood cells; HGB: hemoglobin concentration; HCT: hematocrit; MCV: mean corpuscular volume; MCH: mean corpuscular hemoglobin; MCHC: mean corpuscular hemoglobin concentration; RDW: red blood cell distribution width; PLT: platelets; MPV: mean platelet volume; PDW: platelet distribution width.\na. […] Data are expressed as mean ± SD. ALT: alanine aminotransferase; AST: aspartate aminotransferase; T-BIL: total bilirubin; ALB: albumin; γ-GT: γ-glutamyltransferase; ALP: alkaline phosphatase; TBA: total bile acid; BUN: blood urea nitrogen; UA: uric acid; CR: creatinine; T-CHO: total cholesterol; TG: triglyceride.\na. […] Data are expressed as mean ± SD."}, "ZIKV NS5 polymerase": {"molecular_target": "T2, ZIKV NS5 polymerase (Zika virus, UniProt A0A024B7W1)", "T2 construct": "NS5 (amino acids 1 to 903); His tag (8x histidine) (N); made in house; host or cells: Escherichia coli (Rosetta)", "T2 sequence (A0A024B7W1 2521-3423)": "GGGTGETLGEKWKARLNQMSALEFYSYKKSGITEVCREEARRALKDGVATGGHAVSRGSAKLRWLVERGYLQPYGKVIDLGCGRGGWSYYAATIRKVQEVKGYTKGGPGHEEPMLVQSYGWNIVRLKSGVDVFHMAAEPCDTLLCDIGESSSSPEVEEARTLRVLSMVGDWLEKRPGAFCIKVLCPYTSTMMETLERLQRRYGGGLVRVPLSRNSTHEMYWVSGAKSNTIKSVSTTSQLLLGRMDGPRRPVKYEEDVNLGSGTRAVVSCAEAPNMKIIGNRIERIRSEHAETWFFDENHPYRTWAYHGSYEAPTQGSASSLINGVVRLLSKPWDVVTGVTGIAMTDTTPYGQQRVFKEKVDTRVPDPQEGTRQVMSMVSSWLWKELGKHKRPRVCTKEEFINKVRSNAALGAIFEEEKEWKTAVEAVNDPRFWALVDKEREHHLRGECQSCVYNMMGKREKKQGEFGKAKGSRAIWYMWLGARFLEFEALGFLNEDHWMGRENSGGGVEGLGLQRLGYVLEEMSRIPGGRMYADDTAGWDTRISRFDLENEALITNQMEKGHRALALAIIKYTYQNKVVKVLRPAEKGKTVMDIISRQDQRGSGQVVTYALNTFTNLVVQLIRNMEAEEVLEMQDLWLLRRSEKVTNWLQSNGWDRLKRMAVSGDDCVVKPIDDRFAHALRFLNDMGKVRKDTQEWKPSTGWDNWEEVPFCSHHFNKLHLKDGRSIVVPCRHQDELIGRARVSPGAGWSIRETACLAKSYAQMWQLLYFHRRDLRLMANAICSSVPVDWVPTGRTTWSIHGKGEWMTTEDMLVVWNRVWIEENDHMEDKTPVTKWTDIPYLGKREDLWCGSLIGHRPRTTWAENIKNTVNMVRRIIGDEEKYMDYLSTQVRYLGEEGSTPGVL", "test": "Polymerase activity assay (non-radioactive primer extension)", "type": "biochemical", "settings": "NS5 20 nM, Primer/Template 10 nM, 2 h at 37 °C, quantified by amount of RNA products; read-out: IC50 of RdRp-catalyzed RNA synthesis", "procedure": "ZIKV NS5 polymerase activity was determined using a primer extension reaction with a fluorescently labeled RNA primer/RNA template complex (P/T) as described by Lu et al.. Briefly, fluorescently labeled oligonucleotide primer (Cy5-RNA) and unlabeled RNA template were mixed and then slowly cooled down for annealing. A typical primer extension reaction was performed by ZIKV NS5 polymerase at various concentrations, followed by incubation for 2 h at 37 °C. To determine the inhibitory activity of fidaxomicin, the polymerase reactions were initiated by addition of fidaxomicin at gradient concentrations ranging between 0 and 200 μM. The products were detected by denaturing polyacrylamide gel electrophoresis (Urea PAGE), and the results were scanned using an Odyssey infrared imaging system (LI-COR Biosciences, Lincoln, NE). The images were analyzed, and proper RNA bands were quantified using Image J software version 1.52a (NIH, Bethesda, MD, USA)."}, "ZIKV (ZG-01)": {"tested_on": "ZIKV (ZG-01)", "test": "Western blotting of ZIKV proteins in infected SNB19 cells", "type": "cell-based, Zika virus", "procedure": "Tissue specimens obtained from mice or cells were lysed with RIPA lysis buffer (Millipore, Bedford, MA) containing a cocktail of protease and phosphatase inhibitors (Sigma-Aldrich, St. Louis, MO, USA). Protein concentrations were measured with a bicinchoninic acid (BCA) protein assay (Thermo Fisher Scientific, Rockford, IL, USA). Protein samples were separated by sodium dodecyl sulfate-polyacrylamide gel electrophoresis (SDS-PAGE) and transferred onto a polyvinylidene difluoride (PVDF) membrane. Non-specific antibody binding sites were blocked with 5% non-fat milk in Tris-buffered saline (TBS) (20 mM Tris-HCl [pH 7.6], 135 mM NaCl, and 0.1% Tween 20) for 1 h at room temperature and then incubated with the following primary antibodies: anti-STAT2 (1:1000, sc166201, Santa Cruz Biotechnology, Santa Cruz, CA, USA), anti-ZIKV E (1:1000, BF-1176-56, BioFront Technologies, Tallahassee, USA), anti-ZIKV NS5 (1:1000, BF-6A1-100UG, BioFront), and anti-ZIKV NS3 (1:1000, GTX133309, GeneTex, Alton Pkwy, Irvine, CA, USA). Anti-GAPDH (1:2000, ab181602, Abcam, Cambridge, MA, USA) or mouse anti-GAPDH (1:1000, ab9484, Abcam) was used as a loading control. […] The relative protein level was quantified by densitometry and normalized to GAPDH or mGAPDH level using Image J software (NIH, Bethesda, MD, USA)."}}, "data": [{"smiles": "CCc1c(Cl)c(O)c(Cl)c(O)c1C(=O)O[C@H]1[C@H](O)[C@H](OC)[C@H](OC/C2=C\\C=C\\C[C@H](O)/C(C)=C/[C@H](CC)[C@@H](O[C@@H]3OC(C)(C)[C@@H](OC(=O)C(C)C)[C@H](O)[C@@H]3O)/C(C)=C/C(C)=C/C[C@@H]([C@@H](C)O)OC2=O)O[C@@H]1C", "note": "[Fidaxomicin]", "values": [{"measurement": "Kd", "setting": "ZIKV RdRp protein", "result": 23.2, "unit": "µM"}, {"measurement": "binding to ZIKV RdRp protein (SPR)", "setting": "ZIKV RdRp protein; qualitative", "result": "strong, clear binding"}, {"measurement": "maximum non-toxic dose", "setting": "[1]; C57BL/6J (Ifnar1-/-), mouse, in vivo, 10 days", "result": "> 200", "unit": "mg/kg"}, {"measurement": "MPV", "setting": "[1]; Ifnar1-/- C57BL/6J mice, 200 mg/kg, 10-day treatment, mean ± SD", "result": "4.95 ± 0.59", "unit": "fL"}, {"measurement": "ALB", "setting": "[1]; mouse, in vivo, 200 mg/kg", "result": "29.11 ± 5.19", "unit": "g/L"}, {"measurement": "ALP", "setting": "[1]; mouse, in vivo, 200 mg/kg", "result": "185.3±19.2", "unit": "U/L"}, {"measurement": "ALT", "setting": "[1]; mouse, in vivo, 200 mg/kg", "result": "39.1±4.22", "unit": "U/L"}, {"measurement": "AST", "setting": "[1]; mouse, in vivo, 200 mg/kg", "result": "130.74±18.3", "unit": "U/L"}, {"measurement": "BUN", "setting": "[1]; mouse, in vivo, 200 mg/kg", "result": "31.6 ± 3.54", "unit": "mg/dL"}, {"measurement": "CR", "setting": "[1]; mouse, in vivo, 200 mg/kg", "result": "17.62 ± 1.84", "unit": "µmol/L"}, {"measurement": "Gran#", "setting": "[1]; mouse, in vivo, 200 mg/kg", "result": "0.92±0.23 10^9/L"}, {"measurement": "Gran%", "setting": "[1]; mouse, in vivo, 200 mg/kg", "result": "19.82±4.42", "unit": "%"}, {"measurement": "HCT", "setting": "[1]; mouse, in vivo, 200 mg/kg", "result": "38.96±2.72", "unit": "%"}, {"measurement": "HGB", "setting": "[1]; mouse, in vivo, 200 mg/kg", "result": "124.14 ± 14.36", "unit": "g/L"}, {"measurement": "Lymph#", "setting": "[1]; mouse, in vivo, 200 mg/kg", "result": "3.21±1.01 10^9/L"}, {"measurement": "Lymph%", "setting": "[1]; mouse, in vivo, 200 mg/kg", "result": "75.75±8.94", "unit": "%"}, {"measurement": "MCH", "setting": "[1]; mouse, in vivo, 200 mg/kg", "result": "14.73 ± 0.88", "unit": "pg"}, {"measurement": "MCHC", "setting": "[1]; mouse, in vivo, 200 mg/kg", "result": "302 ± 21.82", "unit": "g/L"}, {"measurement": "MCV", "setting": "[1]; mouse, in vivo, 200 mg/kg", "result": "51.61 ± 1.84", "unit": "fL"}, {"measurement": "Mon#", "setting": "[1]; mouse, in vivo, 200 mg/kg", "result": "0.16±0.07 10^9/L"}, {"measurement": "Mon%", "setting": "[1]; mouse, in vivo, 200 mg/kg", "result": "3.75±0.94", "unit": "%"}, {"measurement": "PDW", "setting": "[1]; mouse, in vivo, 200 mg/kg", "result": "16.65±0.35"}, {"measurement": "PLT", "setting": "[1]; mouse, in vivo, 200 mg/kg", "result": "891.6±337.3 10^9/L"}, {"measurement": "RBC", "setting": "[1]; mouse, in vivo, 200 mg/kg", "result": "7.51±1.44 10^12/L"}, {"measurement": "RDW", "setting": "[1]; mouse, in vivo, 200 mg/kg", "result": "17.56±1.04", "unit": "%"}, {"measurement": "T-BIL", "setting": "[1]; mouse, in vivo, 200 mg/kg", "result": "21.14 ± 1.87", "unit": "µmol/L"}, {"measurement": "T-CHO", "setting": "[1]; mouse, in vivo, 200 mg/kg", "result": "3.12 ± 1.33", "unit": "mmol/L"}, {"measurement": "TBA", "setting": "[1]; mouse, in vivo, 200 mg/kg", "result": "12.75 ± 1.54", "unit": "µmol/L"}, {"measurement": "TG", "setting": "[1]; mouse, in vivo, 200 mg/kg", "result": "2.11 ± 0.45", "unit": "mmol/L"}, {"measurement": "UA", "setting": "[1]; mouse, in vivo, 200 mg/kg", "result": "182.61 ± 23.8", "unit": "µmol/L"}, {"measurement": "WBC", "setting": "[1]; mouse, in vivo, 200 mg/kg", "result": "4.25±1.11 10^9/L"}, {"measurement": "γ-GT", "setting": "[1]; mouse, in vivo, 200 mg/kg", "result": "2.75±0.81", "unit": "U/L"}, {"measurement": "IC50", "setting": "ZIKV NS5 polymerase", "result": 10.9, "unit": "µM"}, {"measurement": "amount of ZIKV NS3 protein", "setting": "ZIKV (ZG-01); SNB19 cell lysates, time-dependent", "result": "decreased"}, {"measurement": "ZIKV NS5 and E proteins", "setting": "ZIKV (ZG-01); SNB19 cells, MOI 1.0 and 2.0", "result": "decreased"}]}]}
